Measured values: PubChem BioAssay (NCI)
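Grown in 96-well plates, cells were treated for 48 hours with each compound at five concentrations. Insufficient inhibition: endpoint recorded as highest concentration tested. TGI denotes the concentration required for complete inhibition of growth.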

Key:
Assay in all cases: NCI anticancer screen, dose series, 48 h
HCT-15 colon = tested on: HCT-15 colon
SNB-19 CNS = tested on: SNB-19 CNS
CCRF-CEM leukemia = tested on: CCRF-CEM leukemia
NCI-H460 lung = tested on: NCI-H460 lung
UACC-62 melanoma = tested on: UACC-62 melanoma
SK-MEL-28 melanoma = tested on: SK-MEL-28 melanoma
MALME-3M melanoma = tested on: MALME-3M melanoma
SNB-75 CNS = tested on: SNB-75 CNS
DLD-1 colon = tested on: DLD-1 colon
SF-295 CNS = tested on: SF-295 CNS
DMS 114 small cell lung = tested on: DMS 114 small cell lung
SN12C renal = tested on: SN12C renal
EKVX NSCLC = tested on: EKVX NSCLC
RXF-631 renal = tested on: RXF-631 renal
LXFL 529 NSCLC = tested on: LXFL 529 NSCLC
NCI-H226 lung = tested on: NCI-H226 lung
MOLT-4 leukemia = tested on: MOLT-4 leukemia
SK-MEL-2 melanoma = tested on: SK-MEL-2 melanoma
M19-MEL melanoma = tested on: M19-MEL melanoma
M14 melanoma = tested on: M14 melanoma
TK-10 renal = tested on: TK-10 renal
XF 498 CNS = tested on: XF 498 CNS
LOX IMVI melanoma = tested on: LOX IMVI melanoma
U251 CNS = tested on: U251 CNS
SF-268 CNS = tested on: SF-268 CNS
SW-620 colon = tested on: SW-620 colon
ACHN renal = tested on: ACHN renal
UO-31 renal = tested on: UO-31 renal
SK-OV-3 ovarian = tested on: SK-OV-3 ovarian
HT29 colon = tested on: HT29 colon
IGROV1 ovarian = tested on: IGROV1 ovarian
SNB-78 CNS = tested on: SNB-78 CNS
CAKI-1 renal = tested on: CAKI-1 renal
SF-539 CNS = tested on: SF-539 CNS
RPMI-8226 leukemia = tested on: RPMI-8226 leukemia
KM20L2 colon = tested on: KM20L2 colon
NCI-H522 lung = tested on: NCI-H522 lung
HOP-92 NSCLC = tested on: HOP-92 NSCLC
K-562 leukemia = tested on: K-562 leukemia
OVCAR-8 ovarian = tested on: OVCAR-8 ovarian
A498 renal = tested on: A498 renal
SK-MEL-5 melanoma = tested on: SK-MEL-5 melanoma
HL-60(TB) leukemia = tested on: HL-60(TB) leukemia
HOP-18 NSCLC = tested on: HOP-18 NSCLC
NCI-H23 lung = tested on: NCI-H23 lung
COLO 205 colon = tested on: COLO 205 colon
OVCAR-3 ovarian = tested on: OVCAR-3 ovarian

Measured: TGI

CCOC(=O)C(=CNC(Cc1c[nH]c2ccccc12)C(=O)OC)C(=O)OCC (configuration not stated)
> 100 µM: HCT-15 colon | SNB-19 CNS | CCRF-CEM leukemia | NCI-H460 lung | UACC-62 melanoma | SK-MEL-28 melanoma | MALME-3M melanoma | SNB-75 CNS | DLD-1 colon | SF-295 CNS | DMS 114 small cell lung | SN12C renal | EKVX NSCLC | RXF-631 renal | LXFL 529 NSCLC | NCI-H226 lung | MOLT-4 leukemia | SK-MEL-2 melanoma | M19-MEL melanoma | M14 melanoma | TK-10 renal | XF 498 CNS | LOX IMVI melanoma | U251 CNS | SF-268 CNS | SW-620 colon | ACHN renal | UO-31 renal | SK-OV-3 ovarian | HT29 colon | IGROV1 ovarian | SNB-78 CNS | CAKI-1 renal | SF-539 CNS | RPMI-8226 leukemia | KM20L2 colon | NCI-H522 lung | HOP-92 NSCLC | K-562 leukemia | OVCAR-8 ovarian | A498 renal | SK-MEL-5 melanoma | HL-60(TB) leukemia | HOP-18 NSCLC | NCI-H23 lung | COLO 205 colon | OVCAR-3 ovarian
